{"source": "paper PMC4506051", "about": "“Pharmacokinetic Profiles of Active Ingredients and Its Metabolites Derived from Rikkunshito, a Ghrelin Enhancer, in Healthy Japanese Volunteers: A Cross-Over, Randomized Study” (PLoS ONE, 2015)", "key": {"[1]": {"assay": "Exploratory trial: plasma concentration of rikkunshito ingredients after single oral rikkunshito 7.5 g", "assay_type": "in vivo", "conditions": "human, in vivo", "in_short": "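Plasma and urine levels were measured by LC–MS/MS after one 7.5 g oral dose of rikkunshito. Samples were collected before dosing and at 0.5–8 h for blood, or in 0–4 h and 4–8 h fractions for urine. Synephrine was determined after protein-removal plate cleanup; the other ingredients after β-glucuronidase deconjugation (2 h, 37°C) and SPE.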"}, "[2]": {"assay": "Exploratory trial: amount of rikkunshito ingredients in urine", "assay_type": "in vivo, human", "conditions": "mean ± S.D., n = 4", "in_short": "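LC–MS/MS measurement of rikkunshito constituents in urine fractions (pre-dose, 0–4 h, 4–8 h) following one 7.5 g oral dose. Other constituents: enzymatic deglucuronidation at 37 °C for 2 h, then SPE cleanup with atractylenolide III or digoxin as IS; synephrine: erythromycin IS, Ostro plate.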"}, "[3]": {"assay": "Stability of ingredients in gastric pH solution (pH 1.2, 37°C)", "assay_type": "physicochemical", "conditions": "for Stability in gastric pH solution, Quantitative value: rikkunshito in acidic solution (pH 1.2) at 37°C", "protocol": "Rikkunshito gradually dissolved in acidic solution (pH 1.2) at 37°C, and the concentration of atractylodin after adding 0.25, 0.5, 1, and 2 h was measured by gas chromatography–mass spectrometry."}, "ghrelin receptor (GHS-R)": {"test_system": "ghrelin receptor (GHS-R)", "conditions": "cited from earlier work"}, "[4]": {"assay": "Formation of ingredients derived from rikkunshito in formulation, blood, and urine (S11 Table summary)", "conditions": "after rikkunshito administration; per ingredient in the formulation; BQL = below the quantification limit"}}}
{"smiles": "C/C=C/C#CC#C/C=C/c1ccco1", "note": "[Atractylodin]", "values": [{"measurement": "concentration at 0 h", "setting": "[1]; 0 h (preadministration), single oral rikkunshito 7.5 g, mean ± S.D., n = 4, read-out: Plasma concentration, 0 h", "value": "0.328 ± 0.655", "unit": "ng/mL"}, {"measurement": "concentration at 0.5 h", "setting": "[1]; 0.5 h after single oral rikkunshito 7.5 g, mean ± S.D., n = 4, read-out: Plasma concentration, 0.5 h", "value": "1.19 ± 0.913", "unit": "ng/mL"}, {"measurement": "concentration at 1 h", "setting": "[1]; 1 h after single oral rikkunshito 7.5 g, mean ± S.D., n = 4", "value": "1.38 ± 1.15", "unit": "ng/mL"}, {"measurement": "concentration at 2 h", "setting": "[1]; 2 h after single oral rikkunshito 7.5 g, mean ± S.D., n = 4, read-out: Plasma concentration, 2 h", "value": "0.863 ± 1.01", "unit": "ng/mL"}, {"measurement": "concentration at 4 h", "setting": "[1]; 4 h after single oral rikkunshito 7.5 g, mean ± S.D., n = 4, read-out: Plasma concentration, 4 h", "value": "1.14 ± 0.899", "unit": "ng/mL"}, {"measurement": "concentration at 8 h", "setting": "[1]; 8 h after single oral rikkunshito 7.5 g, mean ± S.D., n = 4, read-out: Plasma concentration, 8 h", "value": "0.295 ± 0.59", "unit": "ng/mL"}, {"measurement": "Cmax", "setting": "[1]; rikkunshito 7.5 g, four subjects, highest mean concentration over 0–8 h, read-out: C max in plasma (exploratory trial)", "value": 1.38, "unit": "ng/mL"}, {"measurement": "Amount in urine, 0–4 h", "setting": "[2]; 0–4 h after single oral rikkunshito 7.5 g", "value": "75.8 ± 152", "unit": "ng"}, {"measurement": "Amount in urine, 4–8 h", "setting": "[2]; 4–8 h after single oral rikkunshito 7.5 g", "value": "BQL"}, {"measurement": "Amount in urine, Pre", "setting": "[2]; preadministration (between dinner and bedtime)", "value": "BQL"}, {"measurement": "Stability in a solution with the same pH as that in the stomach", "setting": "[3]; pH 1.2, 37°C, S10 Table", "value": "stable"}, {"measurement": "Stability in gastric pH solution, Quantitative value", "setting": "[3]; 0.5 h", "value": 9.03, "unit": "ng/mL"}, {"measurement": "Stability in gastric pH solution, Quantitative value", "setting": "[3]; 1 h", "value": 9.72, "unit": "ng/mL"}, {"measurement": "Stability in gastric pH solution, Quantitative value", "setting": "[3]; 2 h", "value": 8.13, "unit": "ng/mL"}, {"measurement": "Known pharmacology activities: ghrelin signal", "setting": "ghrelin receptor (GHS-R)", "value": "Ghrelin signal enhancement effect [1]"}, {"measurement": "Formation of ingredients: form found in Urine", "setting": "[4]", "value": "Atractylodin"}]}
